Data on eleven compounds can be found in ChEMBL document CHEMBL1201862, “PubChem BioAssay data set” (2004).

Each structure is given as a SMILES string.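 Method: 48-hour compound exposure of cells in 96-well plates, five concentrations, linear interpolation of endpoints. GI50 is the concentration that inhibits growth by half.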 The source made the active and inactive calls. No stated cut-off is given here; in the data, active = GI50 up to about 1.1 µM and inactive = higher.

Some test systems named below: Hs-578T; NCI-H522; A498; K562; SNB-19; SNB-75; SW-620; PC-3; HCT-15; HCC 2998; CAKI-1; MDA-MB-231; ACHN; OVCAR-8; SF-295; UACC-62; SR; M14; BT-549.
Common to all, as to assay: growth of human tumour cells (NCI), 48 h

As for `COC(=O)C12C3C4(C(=O)OC)C1C1(C(=O)OC)C2C3(C(=O)OC)C41C(=O)N(C(C)C)C(C)C` (centres undefined), the GI50 in the test with Hs-578T, in the test on NCI-H522, with A498, with K562, with SNB-19 and in the test on SNB-75 was > 100 µM (inactive) each time. For the same compound, the GI50 with SW-620 is > 100 µM (inactive); in the test on PC-3, > 100 µM (inactive); in the test on HCT-15, above 100 µM; in the test with HCC 2998, > 100 µM (inactive); in the test on CAKI-1, > 100 µM (inactive); in the test on MDA-MB-231 it was > 100 µM (inactive). In addition, the GI50 in the test on ACHN, in the test on OVCAR-8, in the test on SF-295, in the test on UACC-62, in the test with SR and in the test on M14 was > 100 µM (inactive) in each case. Moreover, the GI50 in the test on BT-549 was > 100 µM (inactive).

`Cn1c2ccccc2n2c3ccccc3c3nnc(N)c-3c12`: the GI50 in the test on Hs-578T is 1.69 µM (inactive); in the test with NCI-H522, 8.53 µM (inactive); with A498 it was > 100 µM (inactive); in the test on K562, > 65.8 µM (inactive); in the test with SNB-19 it was 1.45 µM (inactive); with SNB-75, 1.95 µM (inactive). The GI50 in the test on SW-620 is 57.8 µM (inactive); with PC-3, 68.2 µM (inactive); in the test on HCT-15, above 100 µM; with HCC 2998, 41.2 µM (inactive); in the test on CAKI-1, 76.4 µM (inactive); in the test on MDA-MB-231, 55 µM (inactive). Besides, the GI50 is 91.2 µM (inactive) in the test with ACHN; 8.18 µM (inactive) in the test with OVCAR-8; 5.58 µM (inactive) in the test on SF-295; 73.6 µM (inactive) with UACC-62; 26.7 µM (inactive) in the test with SR; > 95.3 µM (inactive) in the test with M14. Moreover, in the test on BT-549, the GI50 is 2.25 µM (inactive).

`CN1CCOC1(C)c1ccccc1` (centres undefined): the GI50 in the test on Hs-578T, in the test with NCI-H522, with A498, with K562, in the test on SNB-19 and in the test with SNB-75 was > 100 µM (inactive) throughout. The GI50 in the test on SW-620 is > 100 µM (inactive); in the test on PC-3, > 100 µM (inactive); in the test on HCT-15 it was above 100 µM; with HCC 2998 it was > 100 µM (inactive); in the test on CAKI-1, > 100 µM (inactive); in the test with MDA-MB-231 it was > 100 µM (inactive). For the same compound, the GI50 in the test on ACHN, with OVCAR-8, in the test with SF-295, in the test with UACC-62, in the test on SR and in the test on M14 was > 100 µM (inactive) each time. Besides, the GI50 in the test on BT-549 was > 100 µM (inactive).

Take `CC(=O)N1NC(c2ccccc2)=NC(=O)C1c1cc(C)c(O)c(C)c1` (centres undefined): the GI50 in the test on Hs-578T is 29.8 µM (inactive); in the test with NCI-H522, 17.8 µM (inactive); in the test on A498, 28.3 µM (inactive); in the test with K562 it was > 100 µM (inactive); with SNB-19, 21.2 µM (inactive); in the test with SNB-75, 19.9 µM (inactive). The GI50 in the test with SW-620 is 44.4 µM (inactive); in the test on PC-3 it was 27.8 µM (inactive); with HCT-15 it was 40 µM; in the test with HCC 2998, 20 µM (inactive); in the test with CAKI-1, > 100 µM (inactive); in the test on MDA-MB-231 it was 21.7 µM (inactive). For the same compound, the GI50 in the test with ACHN was 20.7 µM (inactive); in the test on OVCAR-8, 17.6 µM (inactive); in the test with SF-295, 19.1 µM (inactive); in the test with UACC-62, 20.3 µM (inactive); in the test on SR, 49.3 µM (inactive); in the test on M14, 71.9 µM (inactive). The GI50 in the test with BT-549 is 23 µM (inactive).

Take `CSc1ncc2c(n1)-c1ccccc1OC2NC(C)(C)C` (centres undefined): the GI50 was 83.4 µM (inactive) with Hs-578T; 27.8 µM (inactive) in the test with NCI-H522; 2.62 µM (inactive) in the test on A498; > 100 µM (inactive) in the test with K562; > 100 µM (inactive) in the test with SNB-19; 27.2 µM (inactive) in the test on SNB-75. In addition, the GI50 was > 100 µM (inactive) in the test with SW-620; > 100 µM (inactive) in the test on PC-3; above 100 µM with HCT-15; 21.3 µM (inactive) in the test with HCC 2998; 35.7 µM (inactive) in the test on CAKI-1; > 100 µM (inactive) in the test on MDA-MB-231. In addition, the GI50 in the test on ACHN is 92.9 µM (inactive); with OVCAR-8, > 100 µM (inactive); in the test on SF-295 it was 47.3 µM (inactive); with UACC-62, 68.1 µM (inactive); in the test on SR it was > 100 µM (inactive); in the test with M14, > 100 µM (inactive). Further, in the test on BT-549, the GI50 was 44.9 µM (inactive).

Regarding `CC(C)C(C=O)C(O)(C(F)(F)F)C(F)(F)F` (centres undefined), the GI50 was 59.3 µM (inactive) in the test on Hs-578T; > 100 µM (inactive) in the test on NCI-H522; > 100 µM (inactive) in the test with A498; > 100 µM (inactive) in the test on K562; > 100 µM (inactive) in the test with SNB-19; 11.3 µM (inactive) in the test on SNB-75. In addition, the GI50 is > 100 µM (inactive) with SW-620; > 100 µM (inactive) with PC-3; above 100 µM in the test with HCT-15; > 100 µM (inactive) in the test with HCC 2998; > 100 µM (inactive) in the test on CAKI-1; > 100 µM (inactive) in the test with MDA-MB-231. The GI50 in the test with ACHN, in the test on OVCAR-8, in the test with SF-295, in the test with UACC-62, in the test on SR and with M14 was > 100 µM (inactive) each time. Also, in the test on BT-549, the GI50 is > 100 µM (inactive).

Take `Cc1ccc(S(=O)(=O)NC(=O)OC23COCN2COC3)cc1`: the GI50 in the test on Hs-578T, in the test with NCI-H522, with A498, in the test on K562, with SNB-19 and in the test with SNB-75 was > 100 µM (inactive) throughout. The GI50 in the test with SW-620 was 81.7 µM (inactive); with PC-3, > 100 µM (inactive); in the test on HCT-15, above 100 µM; with HCC 2998, > 100 µM (inactive); with CAKI-1 it was > 100 µM (inactive); in the test on MDA-MB-231, > 100 µM (inactive). Also, the GI50 was > 100 µM (inactive) with ACHN; > 100 µM (inactive) in the test on OVCAR-8; > 100 µM (inactive) in the test with SF-295; > 100 µM (inactive) in the test with UACC-62; 31.6 µM (inactive) in the test on SR; > 100 µM (inactive) with M14. For the same compound, the GI50 in the test with BT-549 was > 100 µM (inactive).

On to `Cn1cnc(N)c(N=O)c1=O`, for which the GI50 with Hs-578T, in the test on NCI-H522, in the test on A498, in the test with K562, with SNB-19 and in the test on SNB-75 was > 10 µM (inactive) throughout. Moreover, the GI50 in the test on SW-620 is > 10 µM (inactive); with PC-3 it was > 10 µM (inactive); in the test with HCT-15, above 10 µM; in the test on HCC 2998, > 10 µM (inactive); in the test on CAKI-1 it was > 10 µM (inactive); with MDA-MB-231, > 10 µM (inactive). Further, the GI50 in the test with ACHN, with OVCAR-8, in the test with SF-295, in the test on UACC-62, in the test on SR and in the test with M14 was > 10 µM (inactive) in each case. Further, in the test with BT-549, the GI50 is > 10 µM (inactive).

Regarding `O=C(/C=C(O)/C(=C/C(=O)c1ccccc1)NN=C(c1ccccc1)c1ccccc1)c1ccccc1`, the GI50 was 29.2 µM (inactive) in the test on Hs-578T; 15.7 µM (inactive) in the test with NCI-H522; 32.4 µM (inactive) in the test with A498; 15.2 µM (inactive) in the test with K562; 41.3 µM (inactive) with SNB-19; 49.7 µM (inactive) with SNB-75. For the same compound, the GI50 in the test with SW-620 was 33.2 µM (inactive); with PC-3, 35.9 µM (inactive); in the test with HCT-15, 23.5 µM; in the test with HCC 2998 it was 20.6 µM (inactive); in the test on CAKI-1, 39.7 µM (inactive); in the test with MDA-MB-231, 49.7 µM (inactive). For the same compound, the GI50 was 38.3 µM (inactive) in the test with ACHN; 44.7 µM (inactive) with OVCAR-8; 23.5 µM (inactive) in the test on SF-295; 17.1 µM (inactive) with UACC-62; 9.08 µM (inactive) with SR; 24.9 µM (inactive) in the test on M14. In addition, the GI50 in the test on BT-549 was 31.2 µM (inactive).

Turning to `COc1cc(C2c3cc4c(cc3OC(NNC(N)=S)C2C)OCO4)cc(OC)c1OC` (centres undefined), the GI50 in the test with Hs-578T is 0.406 µM (active); in the test with NCI-H522, 0.303 µM (active); with A498 it was 0.191 µM (active); with K562 it was 0.242 µM (active); with SNB-19, 0.471 µM (active); with SNB-75, 71.3 µM (inactive). The GI50 in the test on SW-620 is 0.363 µM (active); in the test on PC-3, 0.302 µM (active); with HCT-15, 0.451 µM; with HCC 2998, 0.906 µM (active); with CAKI-1 it was 0.54 µM (active); with MDA-MB-231, 0.4 µM (active). Further, the GI50 with ACHN is 0.989 µM (active); in the test with OVCAR-8 it was 0.411 µM (active); in the test with SF-295 it was 0.231 µM (active); with UACC-62, 0.318 µM (active); in the test with SR it was 0.0811 µM (active); with M14 it was 0.351 µM (active). In the test with BT-549, the GI50 was 0.804 µM (active).

Take `CCOc1c2ccsc2c(OCC)c2ccsc12`: the GI50 is 4.21 µM (inactive) in the test with Hs-578T; 3.27 µM (inactive) in the test on NCI-H522; 7.03 µM (inactive) in the test with A498; 2.95 µM (inactive) with K562; 4.37 µM (inactive) in the test with SNB-19; 3.31 µM (inactive) with SNB-75. Also, the GI50 was 3.72 µM (inactive) in the test on SW-620; 3.94 µM (inactive) in the test with PC-3; 4.06 µM in the test on HCT-15; 6.56 µM (inactive) with HCC 2998; 4.61 µM (inactive) in the test with CAKI-1; 8.57 µM (inactive) with MDA-MB-231. Also, the GI50 was 7.1 µM (inactive) with ACHN; 6.24 µM (inactive) in the test on OVCAR-8; 2.57 µM (inactive) with SF-295; 3.85 µM (inactive) with UACC-62; 4.32 µM (inactive) with SR; 4.69 µM (inactive) in the test with M14. Moreover, the GI50 with BT-549 was > 28.8 µM (inactive).
